Measured values taken from patent publication US20200000816A1, “COMPOUND HAVING SOMATOSTATIN RECEPTOR AGONISTIC ACTIVITY AND PHARMACEUTICAL USE THEREOF” (ONO PHARMACEUTICAL CO., LTD., priority 2017, published 2020).

Assays:
hERG K+ channel = target: T1, hERG K+ channel (Homo sapiens, UniProt Q12809); experiment: Evaluation of hERG K+ channel inhibitory activity using cells expressing human ERG (automated patch-clamp, CHO-K1); type: cell-based; details: CHO-K1 cells with human ERG gene, tested at 1, 3 and 10 μmol/L, 5-minute incubation
T1 construct: expressed in transfected cells; host or cells: CHO-K1
T1 sequence (Q12809 whole entry): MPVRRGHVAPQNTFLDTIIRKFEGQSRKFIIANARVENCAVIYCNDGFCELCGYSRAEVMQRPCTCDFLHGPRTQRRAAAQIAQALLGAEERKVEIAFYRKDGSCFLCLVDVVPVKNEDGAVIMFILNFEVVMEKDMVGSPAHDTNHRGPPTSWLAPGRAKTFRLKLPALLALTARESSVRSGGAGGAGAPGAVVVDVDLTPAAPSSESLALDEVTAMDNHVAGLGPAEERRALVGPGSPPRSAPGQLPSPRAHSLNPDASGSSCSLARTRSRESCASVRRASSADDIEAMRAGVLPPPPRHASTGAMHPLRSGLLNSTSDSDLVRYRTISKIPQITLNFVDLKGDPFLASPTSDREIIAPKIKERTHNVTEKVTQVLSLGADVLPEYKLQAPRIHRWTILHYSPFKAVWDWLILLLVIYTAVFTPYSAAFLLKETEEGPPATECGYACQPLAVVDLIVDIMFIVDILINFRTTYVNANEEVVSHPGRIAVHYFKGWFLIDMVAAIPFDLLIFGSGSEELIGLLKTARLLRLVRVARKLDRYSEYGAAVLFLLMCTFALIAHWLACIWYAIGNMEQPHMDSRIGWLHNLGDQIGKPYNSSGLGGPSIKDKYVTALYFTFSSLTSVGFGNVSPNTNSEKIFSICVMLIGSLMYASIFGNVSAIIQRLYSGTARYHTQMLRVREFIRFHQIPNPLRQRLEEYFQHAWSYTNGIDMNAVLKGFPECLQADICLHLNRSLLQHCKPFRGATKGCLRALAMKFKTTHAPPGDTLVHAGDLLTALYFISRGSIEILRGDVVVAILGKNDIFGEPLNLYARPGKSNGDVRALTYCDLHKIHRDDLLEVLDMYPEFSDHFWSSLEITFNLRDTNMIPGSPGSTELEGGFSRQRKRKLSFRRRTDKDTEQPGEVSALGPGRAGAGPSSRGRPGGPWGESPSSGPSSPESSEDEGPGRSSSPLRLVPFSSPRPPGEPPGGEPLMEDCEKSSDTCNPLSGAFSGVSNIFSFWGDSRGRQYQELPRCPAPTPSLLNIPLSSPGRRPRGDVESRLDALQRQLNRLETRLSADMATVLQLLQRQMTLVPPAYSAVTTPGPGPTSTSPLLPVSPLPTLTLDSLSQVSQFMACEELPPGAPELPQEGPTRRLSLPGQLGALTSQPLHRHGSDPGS
Experimental: Evaluation of hERG K^+ Channel Inhibitory Activity Using Cells Expressing Human ERG
CHO-K1 cells having the human ERG gene (ether-a-go-go related gene) introduced therein were subcultured in an F-12 medium [F-12 Nutrient Mixture (HAM)] containing 10% inactivated foetal bovine serum, 100 IU/mL penicillin-100 μg/mL streptomycin and 200 μg/mL geneticin.
Patch-clamp was performed in a full-automated manner using CHO-K1 cells having the human ERG gene introduced therein and having a perforated patch formed therein with amphotericin B. For the experiment, a 384-well PatchPlate™ was used and the cell suspension and compounds were added thereto. The IKr current was measured with command voltages of holding potential of −80 mV, depolarization potential of +40 mV (2 seconds) and repolarization potential of −50 mV (2 seconds). The stimulation frequency was twice (single pulse stimulations) before and after the treatment with a drug (the concentrations of a compound for evaluation were 1, 3 and 10 μmol/L, a 5-minute incubation), and the Ikr maximum current was measured. The inhibition (%) on the CHO-K1 cells having the human ERG gene introduced therein was determined by correcting the variation in the maximum tail current before and after addition of the test substance by the variation thereof in the group treated with a medium (inhibition (%)=(1-variation in current before and after addition of a test substance/variation in current before and after addition of a medium)×100). The 50% inhibitory concentration (IC50 value) was calculated from a line connecting two points on both sides of the inhibition of 50%.

human SSTR2 = target: T2, human SSTR2 (Homo sapiens, UniProt P30874); experiment: Evaluation of SSTR2 agonistic activity using cells expressing human SSTR2 (suppression of forskolin-stimulated cAMP production, SSTR2-CHO-K1); type: cell-based; details: suppression of cAMP production by forskolin stimulation, 1000 nmol/L octreotide = 100%
T2 construct: Myc; expressed in transfected cells
T2 sequence (P30874 whole entry): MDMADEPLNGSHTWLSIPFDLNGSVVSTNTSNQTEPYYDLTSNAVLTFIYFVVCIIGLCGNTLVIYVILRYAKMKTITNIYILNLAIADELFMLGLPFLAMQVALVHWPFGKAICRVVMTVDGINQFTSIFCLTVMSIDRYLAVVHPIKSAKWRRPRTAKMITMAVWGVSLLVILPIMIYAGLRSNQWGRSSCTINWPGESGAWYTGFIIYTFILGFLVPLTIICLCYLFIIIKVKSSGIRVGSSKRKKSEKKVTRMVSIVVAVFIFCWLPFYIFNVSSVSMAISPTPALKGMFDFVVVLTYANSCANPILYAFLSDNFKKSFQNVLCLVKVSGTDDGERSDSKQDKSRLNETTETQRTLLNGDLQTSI

[1] = system: Chinese hamster lung-derived CHL/IU cells; experiment: Evaluation of phospholipidosis induction ability using cultured cell line (NBD-PE incorporation); type: cell-based; details: 24 hours, positive = 25% or more of amiodarone maximum reaction at cell viability 50% or more; for phospholipidosis induction ability (judgement): 6.25-100 μmol/L
Experimental: Chinese hamster lung-derived CHL/IU cells were suspended in an MEM-E culture solution containing non-essential amino acids, sodium pyruvate and 10% foetal bovine serum and seeded in a 96-well plate. The cells cultured overnight in an incubator (5% carbon dioxide, 95% air, 37° C.) were further cultured for 24 hours after replacing the culture solution with a culture solution containing 6.25, 12.5, 25, 50 or 100 μmol/L of a test substance and NBD-PE (fluorescence label N-(7-nitrobenz-2-oxa-1,3-diazol-4-yl)-1,2-dihexadecanoyl-sn-glycero-3-phosphoethanolamine triethylammonium salt) obtained from Molecular Probes. The phospholipidosis induction ability was evaluated by measuring the concentration of NBD-PE incorporated into the cells. Specifically, the cells were washed twice with PBS and then measured for the fluorescence of NBD-PE (excitation wavelength: 485 nm, fluorescence wavelength: 535 nm) incorporated in the cells on a SpectraMax plate reader available from Molecular Devices, LLC. for evaluation. After measurement of the fluorescence of NBD-PE, the cell viability was evaluated with Premix WST-1 Cell Proliferation Assay System available from TaKaRa Bio Inc. The phospholipidosis induction ability was judged to be positive when, at a dose that provided a cell viability of 50% or more, the reaction (the concentration of NBD-PE incorporated after administration of a test substance) was 25% or more of the maximum reaction of a positive control amiodarone (the concentration of NBD-PE incorporated into the cells after administration of amiodarone was regarded as 100%).

GH secretion = experiment: Evaluation of suppression of growth hormone (GH) secretion using rats (GHRH-induced); type: in vivo; details: Rattus norvegicus, 5 min, oral, dosage of 1 mg/kg, GHRH given 8 hours after dosing, blood GH 5 minutes after GHRH
Experimental: A medium (distilled water (Otsuka distilled water, Otsuka Pharmaceutical Factory, Inc.)) or a test compound dissolved in the medium was orally administered to rats (7-week old male Crl:CD(SD) IGS rats (Charles River Laboratories Japan, Inc.)) and after 7 hours and 57 minutes, the animals were administered with 50 mg/kg of pentobarbital sodium (Somnopentyl, Kyoritsu Seiyaku Corporation) via the tail vein for anaesthesia. Three minutes after administration of pentobarbital sodium, the rats were administered with 0.01 mg/kg of growth hormone-releasing hormone (GHRH, Bachem) via the tail vein to induce GH secretion. In order to measure the blood GH concentration, 0.2 mL of blood was collected through the jugular vein at 5 minutes after administration of GHRH. The collected blood was centrifuged at 4° C., 13,000×g for 5 minutes to obtain plasma. The blood GH concentration was measured by using Rat/Mouse Growth Hormone ELISA (Millipore) following the instruction of the kit. The percentage (%) of suppression of GH secretion was determined by using the obtained blood GH concentration and the equation {[suppression (%) of GH secretion]=([blood GH concentration of the group administered with the medium]−[blood GH concentration of the group administered with a test compound])/[blood GH concentration of the group administered with the medium]×100}. In the equation, the group administered with the medium represents the group of animals administered with the medium and the group administered with a test compound represents the group of animals administered with a test compound dissolved in the medium.

Compound | EC50 (human SSTR2) [nM] | IC50 (hERG K+ channel) [nM] | phospholipidosis induction ability (judgement) [1] | inhibition in vivo at 1 mg/kg (GH secretion) [%] | concentration at which judged to be positive in phospholipidosis induction ability [1] [µM]
CCN[C@@H]1CCN(c2c(-c3cc(F)cc(F)c3)cnc(C)c2-c2nc3cc(F)c(OC)cc3[nH]2)C[C@@H]1O [Example 3(4), (3S,4R)-1-[5-(3,5-difluorophenyl)-3-(5-fluoro-6-methoxy-1H-benzimidazol-2-yl)-2-methyl-4-pyridinyl]-4-(ethylamino)-3-piperidinol] | 0.056 | ≥ 10000 |  | 71 | 
Cc1ncc(-c2cc(F)cc(F)c2)c(N2CC[C@@H](NCCC(F)(F)F)[C@@H](O)C2)c1-c1nc2cc(F)c(F)cc2[nH]1 [Example 3(12), (3S,4R)-1-[3-(5,6-difluoro-1H-benzimidazol-2-yl)-5-(3,5-difluorophenyl)-2-methyl-4-pyridinyl]-4-[(3,3,3-trifluoropropyl)amino]-3-piperidinol] | 1 | 5100 | negative | 85 | 
CCN[C@@H]1CCN(c2c(-c3cc(F)cc(F)c3)cnc(C)c2-c2nc3cc(F)c(F)c(F)c3[nH]2)C[C@@H]1O [Example 3(15), (3S,4R)-1-[5-(3,5-difluorophenyl)-2-methyl-3-(5,6,7-trifluoro-1H-benzimidazol-2-yl)-4-pyridinyl]-4-(ethylamino)-3-piperidinol] | 0.47 | 5800 |  | 66 | 
O[C@H]1CN(c2c(-c3cc(F)cc(Cl)c3)cncc2-c2nc3cc(F)c(F)cc3[nH]2)CC[C@H]1NCCC(F)(F)F [Example 5(3), (3S,4R)-1-[3-(3-chloro-5-fluorophenyl)-5-(5,6-difluoro-1H-benzimidazol-2-yl)-4-pyridinyl]-4-[(3,3,3-trifluoropropyl)amino]-3-piperidinol] | 0.28 | ≥ 10000 | negative |  | 
COc1cc(F)cc(-c2cncc(-c3nc4cc(F)c(F)cc4[nH]3)c2N2CC[C@@H](NCCC(F)(F)F)[C@@H](O)C2)c1 [Example 5(5), (3S,4R)-1-[3-(5,6-difluoro-1H-benzimidazol-2-yl)-5-(3-fluoro-5-methoxyphenyl)-4-pyridinyl]-4-[(3,3,3-trifluoropropyl)amino]-3-piperidinol] | 0.42 | ≥ 10000 | negative |  | 
COC(=O)c1cc(F)cc2nc(-c3c(N4CCOCC4)ncc(-c4cc(F)cc(F)c4)c3N3CC[C@@H](N)[C@@H](O)C3)[nH]c12 [Example 6, Methyl 2-{4-[(3S,4R)-4-amino-3-hydroxy-1-piperidinyl]-5-(3,5-difluorophenyl)-2-(4-morpholinyl)-3-pyridinyl}-5-fluoro-1H-benzimidazole-7-carboxylate] | 0.081 | 4400 |  |  | 50

The next compounds have a lower EC50 (human SSTR2) than those just listed; values first:

EC50 (human SSTR2) [nM] | Compound | IC50 (hERG K+ channel) [nM] | phospholipidosis induction ability (judgement) [1] | inhibition in vivo at 1 mg/kg (GH secretion) [%] | concentration at which judged to be positive in phospholipidosis induction ability [1] [µM]
0.032 | Cn1cc(-c2ncc(-c3cc(F)cc(F)c3)c(N3CC[C@@H](N)[C@@H](O)C3)c2-c2nc3cc(F)c(F)cc3[nH]2)cn1 [Example 1(2), (3S,4R)-4-amino-1-[3-(5,6-difluoro-1H-benzimidazol-2-yl)-5-(3,5-difluorophenyl)-2-(1-methyl-1H-pyrazol-4-yl)-4-pyridinyl]-3-piperidinol] | ≥ 10000 | negative |  | 
0.027 | COc1ccc2nc(-c3c(C)ncc(-c4cc(F)cc(Cl)c4)c3N3CC[C@@H](NC4COC4)[C@@H](O)C3)[nH]c2c1 [Example 3, (3S,4R)-1-[5-(3-chloro-5-fluorophenyl)-3-(6-methoxy-1H-benzimidazol-2-yl)-2-methyl-4-pyridinyl]-4-(3-oxetanylamino)-3-piperidinol] | ≥ 10000 | negative |  | 
0.023 | Cc1ncc(-c2cc(F)cc(Cl)c2)c(N2CC[C@@H](NC3COC3)[C@@H](O)C2)c1-c1nc2cc(F)c(F)cc2[nH]1 [Example 3(5), (3S,4R)-1-[5-(3-chloro-5-fluorophenyl)-3-(5,6-difluoro-1H-benzimidazol-2-yl)-2-methyl-4-pyridinyl]-4-(3-oxetanylamino)-3-piperidinol] | 9600 | negative | 83 | 
0.019 | COC(=O)c1cc(F)cc2nc(-c3c(C)ncc(-c4cc(F)cc(Cl)c4)c3N3CC[C@@H](N)[C@@H](O)C3)[nH]c12 [Example 2(3), Methyl 2-{4-[(3S,4R)-4-amino-3-hydroxy-1-piperidinyl]-5-(3-chloro-5-fluorophenyl)-2-methyl-3-pyridinyl}-5-fluoro-1H-benzimidazole-7-carboxylate] | 5200 |  | 76 | 12.5
0.017 | Cc1ncc(-c2cc(F)cc(F)c2)c(N2CC[C@@H](N)[C@@H](O)C2)c1-c1nc2cc(F)c(F)c(F)c2[nH]1 [Example 2(13), (3S,4R)-4-amino-1-[5-(3,5-difluorophenyl)-2-methyl-3-(5,6,7-trifluoro-1H-benzimidazol-2-yl)-4-pyridinyl]-3-piperidinol] | ≥ 10000 |  |  | 
0.016 | COC(=O)c1cc(F)cc2nc(-c3c(C)ncc(-c4cc(F)ccc4F)c3N3CC[C@@H](N)[C@@H](O)C3)[nH]c12 [Example 2(12), Methyl 2-{4-[(3S,4R)-4-amino-3-hydroxy-1-piperidinyl]-5-(2,5-difluorophenyl)-2-methyl-3-pyridinyl}-5-fluoro-1H-benzimidazole-7-carboxylate] | 9400 |  |  | 
0.015 | N[C@@H]1CCN(c2c(-c3cc(F)cc(F)c3)cncc2-c2nc3cc(F)c(F)cc3[nH]2)C[C@@H]1O [Example 4, (3S,4R)-4-amino-1-[3-(5,6-difluoro-1H-benzimidazol-2-yl)-5-(3,5-difluorophenyl)-4-pyridinyl]-3-piperidinol] | 6900 |  |  | ≥ 12.5
0.012 | COc1ccc2nc(-c3cncc(-c4cc(F)ccc4F)c3N3CC[C@@H](N)[C@@H](O)C3)[nH]c2c1 [Example 4(15), (3S,4R)-4-amino-1-[3-(2,5-difluorophenyl)-5-(6-methoxy-1H-benzimidazol-2-yl)-4-pyridinyl]-3-piperidinol] | 9100 |  |  | 25
0.0093 | N[C@@H]1CCN(c2c(-c3cc(F)cc(F)c3)cncc2-c2nc3ccccc3[nH]2)C[C@@H]1O [Example 4(4), (3S,4R)-4-amino-1-[3-(1H-benzimidazol-2-yl)-5-(3,5-difluorophenyl)-4-pyridinyl]-3-piperidinol] | 6700 |  |  | 25
